Entries after “also recorded” stand apart in the source; their conditions may differ. Read-outs that look alike come from different tables or passages of the source.
Experiments:
monkey RXFP1 = test system: monkey RXFP1; set-up: method as in PMID 26866459; details: cited from earlier work
RXFP1 and GαoB = test system: T1, RXFP1 and GαoB; assay: Real-time kinetic BRET, RXFP1-Rluc8 / GαoB; assay type: cell-based, human; details: HEK293T co-expressing RXFP1-Rluc8, Gγ2-Venus, Gβ1, GαoB; H2 relaxin 100 nM, ML290 100 nM or 10 μM
T1 construct: forward primer encodes M-D-S-K-G-S-S, not the native RXFP1 start (N); expressed in transfected cells; host or cells: HEK293T cells stably expressing RXFP1-Rluc8, transiently co-transfected with the G protein subunits
Method: HEK293 cell were seeded in 6-well plates at a density of 600,000 cells per well and transfected with constructs encoding the tagged receptors and signalling proteins. 24 h later cells were harvested in HEPES-buffered phenol red-free medium containing 5% FBS and plated out in a white 96-well plate (Nunc) that was incubated at 37 °C under 5% CO2. BRET assays were performed 48 h after transfection as described previously, [52]. Medium was replaced with phenol-red-free-DMEM supplemented with 5% FBS plus 5 μM coelenterazine h. BRET measurements were made at 37 °C using the PHERAstar Omega plate reader with Omega software (BMG LABTECH, Germany). Filtered light emissions were simultaneously measured in each of the “donor wavelength window” (475 ± 15 nm for Rluc8 with coelenterazine h) and “acceptor wavelength window” (535 ± 15 nm for Venus). Cells were assayed before and after treatment with ligands or 5% FBS phenol-red-free-DMEM medium containing 0.01% w/v BSA (vehicle). The BRET signal was calculated as previously described.

RXFP1 [1] = target: T2, RXFP1 (Homo sapiens, UniProt Q9HBX9); assay: cAMP accumulation in HEK-RXFP1 cells; assay type: cell-based; set-up: expressed in transfected cells; host or cells: HEK293T / HEK293 cells stably expressing RXFP1 (HEK-RXFP1); details: read-out: cAMP accumulation efficacy (Emax)
T2 sequence (Q9HBX9 1-757): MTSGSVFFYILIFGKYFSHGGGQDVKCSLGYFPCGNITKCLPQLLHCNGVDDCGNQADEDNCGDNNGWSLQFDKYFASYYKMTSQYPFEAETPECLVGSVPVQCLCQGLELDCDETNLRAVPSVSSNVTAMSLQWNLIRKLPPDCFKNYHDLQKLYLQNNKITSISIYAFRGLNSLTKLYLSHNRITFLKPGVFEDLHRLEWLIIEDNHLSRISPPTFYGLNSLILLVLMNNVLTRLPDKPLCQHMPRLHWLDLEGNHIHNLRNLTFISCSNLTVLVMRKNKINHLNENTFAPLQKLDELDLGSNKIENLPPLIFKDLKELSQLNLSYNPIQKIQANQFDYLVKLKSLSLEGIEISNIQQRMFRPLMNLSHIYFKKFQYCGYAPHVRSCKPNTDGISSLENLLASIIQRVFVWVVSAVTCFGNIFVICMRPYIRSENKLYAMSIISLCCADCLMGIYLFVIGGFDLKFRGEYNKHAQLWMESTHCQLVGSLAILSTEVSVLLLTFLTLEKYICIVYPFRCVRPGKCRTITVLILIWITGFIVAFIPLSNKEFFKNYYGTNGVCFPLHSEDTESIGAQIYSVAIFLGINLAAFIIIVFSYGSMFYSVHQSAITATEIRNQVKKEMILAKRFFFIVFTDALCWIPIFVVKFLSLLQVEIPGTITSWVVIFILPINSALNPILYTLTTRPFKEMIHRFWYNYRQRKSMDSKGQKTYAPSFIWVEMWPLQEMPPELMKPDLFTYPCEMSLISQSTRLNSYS
Method: (§1) cAMP and cGMP accumulation was determined as previously described, [16]. Briefly, HEK293 cells were plated in 96-well plates (5 × 10^4 cells/well) and human primary cells were plated into 24-well plates (1 × 10^5 cells/well) and grown overnight to achieve a confluent monolayer. Prior to stimulation, HEK cells were serum-starved in DMEM containing 0.5% FBS v/v and primary cells were serum-starved in M199 medium for 4–6 hours. Where appropriate, cells were pre-incubated with mSIRK (5 μM, 30 min), mSIRK control peptide L9A (5 μM, 30 min), gallein (100 μM, 30 min), Wortmannin (100 nM, 30 min), NF023 (10 μM, 30 min) and NF449 (10 μM, 30 min). Levels of cAMP and cGMP were detected according to the manufacturer’s instructions (Perkin-Elmer, Australia).

RXFP3 = test system: RXFP3; set-up: method as in PMID 23764525; details: cited from earlier work
[2] = test system: ML290-mediated cGMP accumulation; assay: Effect of signalling pathway inhibitors on ML290-mediated cGMP accumulation in human primary vascular cells; assay type: cell-based; details: for Emax: Homo sapiens, read-out: ML290-mediated cGMP accumulation (maximum response), ML290 alone
Method: as §1, with “Where appropriate, cells were pre-incubated with mSIRK (5 μM, 30 min), mSIRK control peptide L9A (5 μM, 30 min), gallein (100 μM, 30 min), Wortmannin (100 nM, 30 min), NF023 (10 μM, 30 min) and NF449 (10 μM, 30 min).” left out

AVPR1B = test system: AVPR1B; set-up: method as in PMID 23764525; details: cited from earlier work
[3] = set-up: method as in PMID 23764525; details: cited from earlier work
THP-1 cells = test system: THP-1 cells; set-up: method as in PMID 23764525; details: cited from earlier work
RXFP1 [4] = target: T2, RXFP1; assay: 125I-H2 relaxin radioligand binding in HEK-RXFP1 cells; set-up: expressed in transfected cells; host or cells: HEK293T / HEK293 cells stably expressing RXFP1 (HEK-RXFP1)
Method: Competition radioligand binding studies were performed in HEK-RXFP1 cells as described previously. […] After 90 min incubation at room temperature, the reaction was terminated with the removal of medium and washing with cold PBS. Cells were digested with 0.1 M NaOH and radioactivity counted on the γ-counter.

RXFP2 = details: cited from earlier work

Compound: CC(C)Oc1ccccc1C(=O)Nc1ccccc1C(=O)Nc1cccc(S(=O)(=O)C(F)(F)F)c1 [ML290, 2-Isopropoxy-N-(2-(3-(trifluoromethylsulfonyl)phenylcarbamoyl)phenyl) benzamide]
- agonist action at monkey RXFP1 (monkey RXFP1): activates
- ligand-induced BRET, RXFP1 - GαoB interaction (RXFP1 and GαoB): promoted interactions; also recorded: moved in the opposite direction to that to H2 relaxin
- Emax (RXFP1 [1]): 113%
- action at RXFP3 (RXFP3): little or no action
- ML290-mediated cGMP accumulation, ML290 alone ([2]; HUASMCs, control of NF449 and mSIRK experiments): 41.9 ± 4.8%
- ML290-mediated cGMP accumulation, ML290 alone ([2]; HUASMCs, control of gallein and Wortmannin experiments): 32.1 ± 4.2%
- ML290-mediated cGMP accumulation, ML290 alone ([2]; HUVSMCs, control of NF449 and mSIRK experiments): 31.4 ± 4.8%
- ML290-mediated cGMP accumulation, ML290 alone ([2]; HUVSMCs, control of gallein and Wortmannin experiments): 30.4 ± 3.2%
- Emax ([2]; HUVEC): 39.5 ± 4.8%
- Emax [2]: 41 ± 4.5%
- action at AVPR1B (AVPR1B): little or no action
- microsomal stability [3]: high microsomal stability
- VEGF expression (THP-1 cells): increased VEGF expression
- 125I-H2 relaxin specific binding to RXFP1 in presence of ML290 (RXFP1 [4]; 125I-H2 relaxin 100pM, increased from 102.7 ± […]): 135.2 ± 6.5%
- effect on the affinity of H2 relaxin (RXFP1 [4]; ML290 1 μM): no significant effect
- action at RXFP2 (RXFP2): little or no action
